For assay [1], the system named is E. coli S30 extract (bacterial protein synthesis). Nature of the assay: E. coli S30 extract coupled transcription-translation luciferase assay (inhibition of bacterial protein synthesis). To be noted: class by IC50 or % inhibition @ 1 μM, read-out: S30 IC50 (μM/% inhib.). It is filed as biochemical. The method, boiled down: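 Luminescent read-out of luciferase made from pBESTluc DNA by E. coli S30 extract after 1 h at 37 °C with compound in an 8-point 2-fold series. Background came from no-DNA reactions. Percent inhibition was calculated against water-only controls.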

The subject of assay [2] is P. aeruginosa (Pa). Kind of assay: Broth microdilution minimum inhibitory concentration (MIC). It is filed as cell-based. The conditions noted are these: Pseudomonas aeruginosa, P. aeruginosa; growth medium with sodium bicarbonate; read-out: Pa MIC + bicarb. The method, boiled down: (§1)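 MICs were run in triplicate per CLSI microdilution (modified, 8 dilution steps), inoculating 5×10^4 CFU/well prepared from colonies grown at 35±2° C to 0.5 McFarland. Media: CAMHB alone, with 6.25 or 25 mM final sodium bicarbonate, or with 0–50% heat-inactivated human serum.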

Assay [3] relates to E. coli (Ec). The assay is described as above. It is filed as cell-based. To be noted: Escherichia coli, E. coli; growth medium with sodium bicarbonate; read-out: E. coli + bicarb MIC. The method in brief:
as §1

Assay [4] deals with A. baumannii (Ab). Described as above. It is filed as cell-based. The conditions noted are these: Acinetobacter baumannii; A. baumannii; growth medium with sodium bicarbonate; read-out: Ab + bicarb MIC. The method in brief:
as §1

The test system of assay [5] is S. aureus (Sa). The description is as above. It is filed as cell-based. The conditions noted are these: Staphylococcus aureus, S. aureus; growth medium with sodium bicarbonate; read-out: Sa + bicarb MIC. The method in brief:
as §1

In assay [6] the test system is E. faecalis (Ef). Described as above. It is filed as cell-based. To be noted: Enterococcus faecalis, E. faecalis; growth medium with sodium bicarbonate; read-out: Ef + bicarb MIC. The method, boiled down: as §1
Assay [7] concerns the target Rabbit Reticulocyte Lysate (eukaryotic protein synthesis). Nature of the assay: Rabbit reticulocyte lysate luciferase assay (inhibition of eukaryotic protein synthesis). It is filed as biochemical. To be noted: class by IC50 or % inhibition @ 1 μM, read-out: Rabbit reticulocyte IC50 (μM/% inhib.). The method in brief:
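Compounds were tested in 8-point 2-fold dilution series for blocking luciferase synthesis in nuclease-treated rabbit reticulocyte lysate (30° C., 90 minutes). Luminescence read-out, corrected by no-RNA background, was expressed as % inhibition against water-only reactions.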

Bounds are passed on as bounds.

A word on the MIC: it is the least concentration at which growth counts as inhibited.

With `CC(C)(N)C(=O)N1CCN(C(=O)Nc2ccn(-c3ccc(CN4CC[C@@H](N)[C@@H](F)C4)cc3)c(=O)n2)CC1` [Compound 209], the IC50 in assay [1] and in assay [7] was above 1 µM each time. Also, the MIC in assay [2] was above 32 µg/mL; in assay [3], below 8 µg/mL; in assay [4], above 32 µg/mL; in assay [5] it was above 32 µg/mL; in assay [6], above 32 µg/mL.

As to `C[C@@H]1CN(Cc2ccc(-n3ccc(NC(=O)N4CCN(C(=O)C(C)(C)N)CC4)nc3=O)cc2)CC[C@H]1N` [Compound 210], the results for the IC50 in assay [1] and in assay [7] were below 0.5 µM and above 1 µM, respectively. Besides, the minimum inhibitory concentration (MIC) in assay [2] was above 32 µg/mL; in assay [3], below 8 µg/mL; in assay [4], above 32 µg/mL; in assay [5] it was below 8 µg/mL; in assay [6], below 8 µg/mL.

Take `C[C@H]1CN(Cc2ccc(-n3ccc(NC(=O)N4CCN(C(=O)C(C)(C)N)CC4)nc3=O)cc2)CC[C@H]1N` [Compound 211]: the IC50 in assay [1] is 0.5 to 1 µM; in assay [7], above 1 µM. For the same molecule, the MIC in assay [2] was above 32 µg/mL; in assay [3], below 8 µg/mL; in assay [4] it was above 32 µg/mL; in assay [5] it was below 8 µg/mL; in assay [6] it was 8 to 32 µg/mL.

`CC[C@H]1CN(Cc2ccc(-n3ccc(NC(=O)N4CCN(C(=O)C(C)(C)N)CC4)nc3=O)cc2)CC[C@H]1N` [Compound 212]: the results for the IC50 in assay [1] and in assay [7] were 0.5 to 1 µM and above 1 µM, respectively. The MIC was above 32 µg/mL in assay [2]; below 8 µg/mL in assay [3]; above 32 µg/mL in assay [4]; below 8 µg/mL in assay [5]; below 8 µg/mL in assay [6].

Consider `C[C@@H](N)C1CCN(Cc2ccc(-n3ccc(NC(=O)N4CCN(C(=O)C(C)(C)N)CC4)nc3=O)cc2)CC1` [Compound 219], for which the IC50 was 0.5 to 1 µM in assay [1] and above 1 µM in assay [7]. Besides, the MIC in assay [2] is above 32 µg/mL; in assay [3], below 8 µg/mL; in assay [4], above 32 µg/mL; in assay [5] it was below 8 µg/mL; in assay [6], 8 to 32 µg/mL.

On to `C[C@H](N)C1CCN(Cc2ccc(-n3ccc(NC(=O)N4CCN(C(=O)C(C)(C)N)CC4)nc3=O)cc2)CC1` [Compound 220], for which the IC50 in assay [1] was below 0.5 µM; in assay [7] it was above 1 µM. The MIC is above 32 µg/mL in assay [2]; below 8 µg/mL in assay [3]; 8 to 32 µg/mL in assay [4]; below 8 µg/mL in assay [5]; 8 to 32 µg/mL in assay [6].

Consider `CC(C)(N)C(=O)N1CCN(C(=O)Nc2ccn(-c3ccc(CN4CC[C@@H](N)[C@H](CO)C4)cc3)c(=O)n2)CC1` [Compound 227], for which the IC50 in assay [1] and in assay [7] was above 1 µM throughout. In addition, the MIC in assay [2] is above 32 µg/mL; in assay [3], 8 to 32 µg/mL; in assay [4] it was above 32 µg/mL; in assay [5] it was above 32 µg/mL; in assay [6], above 32 µg/mL.

As to `CC(C)(N)CC1(F)CCN(C(=O)Nc2ccn(-c3ccc(CN4CCC(N)CC4)cc3)c(=O)n2)CC1` [Compound 233], the IC50 in assay [1] and in assay [7] was above 1 µM throughout. Also, the MIC in assay [2] is above 32 µg/mL; in assay [3], below 8 µg/mL; in assay [4] it was above 32 µg/mL; in assay [5], below 8 µg/mL; in assay [6], above 32 µg/mL.

As for `CC(C)(N)C(=O)N1CCN(C(=O)Nc2ccn(-c3ccc(CN4CC[C@H](CN)C4)cc3)c(=O)n2)CC1` [Compound 242], the IC50 in assay [1] is below 0.5 µM; in assay [7] it was above 1 µM. For the same molecule, the MIC in assay [2] is above 32 µg/mL; in assay [3], below 8 µg/mL; in assay [4] it was above 32 µg/mL; in assay [5], below 8 µg/mL; in assay [6] it was 8 to 32 µg/mL.

For `CC(C)(N)C(=O)N1CCN(C(=O)Nc2ccn(-c3ccc(CN4CC[C@@H](CN)C4)cc3)c(=O)n2)CC1` [Compound 243], the IC50 in assay [1] is below 0.5 µM; in assay [7] it was above 1 µM. For the same molecule, the MIC in assay [2] was above 32 µg/mL; in assay [3], below 8 µg/mL; in assay [4], above 32 µg/mL; in assay [5], below 8 µg/mL; in assay [6] it was 8 to 32 µg/mL.

Turning to `CC(C)(N)C(=O)N1CCN(C(=O)Nc2ccn(-c3ccc(CN4CCC(CN)CC4)cc3)c(=O)n2)CC1` [Compound 245], the IC50 in assay [1] is below 0.5 µM; in assay [7], above 1 µM. In addition, the minimum inhibitory concentration (MIC) in assay [2] is above 32 µg/mL; in assay [3], below 8 µg/mL; in assay [4], above 32 µg/mL; in assay [5], below 8 µg/mL; in assay [6] it was below 8 µg/mL.

For the molecule `CC(N)C1CCN(Cc2ccc(-n3ccc(NC(=O)N4CCN(C(=O)C(C)(C)N)CC4)nc3=O)cc2)CC1` (stereo not shown) [Compound 247], the IC50 in assay [1] was below 0.5 µM; in assay [7] it was above 1 µM. The MIC in assay [2] was above 32 µg/mL; in assay [3], below 8 µg/mL; in assay [4], above 32 µg/mL; in assay [5], below 8 µg/mL; in assay [6], below 8 µg/mL.

Take `CC1(CN)CCN(Cc2ccc(-n3ccc(NC(=O)N4CCN(C(=O)C(C)(C)N)CC4)nc3=O)cc2)CC1` [Compound 249]: the results for the IC50 in assay [1] and in assay [7] were below 0.5 µM and above 1 µM, respectively. Also, the MIC was above 32 µg/mL in assay [2]; below 8 µg/mL in assay [3]; above 32 µg/mL in assay [4]; below 8 µg/mL in assay [5]; 8 to 32 µg/mL in assay [6].

As to `CC1CN(Cc2ccc(-n3ccc(NC(=O)N4CCN(C(=O)C(C)(C)N)CC4)nc3=O)cc2)CCC1N` (stereo not shown) [Compound 251], the IC50 in assay [1] was below 0.5 µM; in assay [7], above 1 µM. Further, the minimal inhibitory concentration (MIC) is above 32 µg/mL in assay [2]; below 8 µg/mL in assay [3]; above 32 µg/mL in assay [4]; below 8 µg/mL in assay [5]; below 8 µg/mL in assay [6].

On to `CC(C)(N)C(=O)N1CCN(C(=O)Nc2ccn(-c3ccc(CN4CCC(N)C(C)(C)C4)cc3)c(=O)n2)CC1` (stereo not shown) [Compound 254], for which the IC50 in assay [1] is 0.5 to 1 µM; in assay [7], above 1 µM. For the same molecule, the MIC in assay [2] is above 32 µg/mL; in assay [3] it was below 8 µg/mL; in assay [4], below 8 µg/mL; in assay [5] it was below 8 µg/mL; in assay [6] it was below 8 µg/mL.

Turning to `CC(C)(N)C(=O)N1CCN(C(=O)Nc2ccn(-c3ccc(CN4CC[C@@H](N)[C@H](O)C4)cc3)c(=O)n2)CC1` [Compound 268], the IC50 in assay [1] and in assay [7] was above 1 µM each time. Besides, the minimal inhibitory concentration (MIC) in assay [2] is above 32 µg/mL; in assay [3], 8 to 32 µg/mL; in assay [4], above 32 µg/mL; in assay [5], 8 to 32 µg/mL; in assay [6] it was above 32 µg/mL.

For the molecule `CC(C)(N)C(=O)N1CCN(C(=O)Nc2ccn(-c3ccc(CC(=O)N4CCC(N)CC4)cc3)c(=O)n2)CC1` [Compound 269], the IC50 in assay [1] and in assay [7] was above 1 µM in each case. Also, the minimum inhibitory concentration (MIC) was above 32 µg/mL in assay [2]; 8 to 32 µg/mL in assay [3]; above 32 µg/mL in assay [4]; above 32 µg/mL in assay [5]; above 32 µg/mL in assay [6].

Take `Cc1cc(-n2ccc(NC(=O)N3CCN(C(=O)C(C)(C)N)CC3)nc2=O)ccc1CN(CC1CC1)C1CCC(N)CC1` (stereo not shown) [Compound 270]: the IC50 was below 0.5 µM in assay [1] and above 1 µM in assay [7]. Further, the MIC is 8 to 32 µg/mL in assay [2]; below 8 µg/mL in assay [3]; below 8 µg/mL in assay [4]; below 8 µg/mL in assay [5]; below 8 µg/mL in assay [6].

In the case of `CC(C)(N)C(=O)N1CCN(C(=O)Nc2ccn(-c3ccc(CNC4CCC(N)CC4)c(Cl)c3)c(=O)n2)CC1` (stereo not shown) [Compound 271], the IC50 in assay [1] was below 0.5 µM; in assay [7], above 1 µM. Also, the MIC in assay [2] was above 32 µg/mL; in assay [3], below 8 µg/mL; in assay [4], above 32 µg/mL; in assay [5], below 8 µg/mL; in assay [6] it was below 8 µg/mL.

Regarding `CN(Cc1ccc(-n2ccc(NC(=O)N3CCN(C(=O)C(C)(C)N)CC3)nc2=O)cc1Cl)C1CCC(N)CC1` (stereo not shown) [Compound 272], the IC50 is below 0.5 µM in assay [1] and above 1 µM in assay [7]. The MIC in assay [2] was 8 to 32 µg/mL; in assay [3], below 8 µg/mL; in assay [4], below 8 µg/mL; in assay [5], below 8 µg/mL; in assay [6], below 8 µg/mL.

Turning to `CCN(Cc1ccc(-n2ccc(NC(=O)N3CCN(C(=O)C(C)(C)N)CC3)nc2=O)cc1Cl)C1CCC(N)CC1` (stereo not shown) [Compound 273], the IC50 in assay [1] was below 0.5 µM; in assay [7] it was above 1 µM. For the same molecule, the MIC is 8 to 32 µg/mL in assay [2]; below 8 µg/mL in assay [3]; below 8 µg/mL in assay [4]; below 8 µg/mL in assay [5]; below 8 µg/mL in assay [6].

Consider `CCN(Cc1ccc(-n2ccc(NC(=O)N3CCN(C(=O)C(C)(C)N)[C@H](C)C3)nc2=O)cc1)C1CCC(N)CC1` (stereo partly shown) [Compound 274], for which the IC50 in assay [1] is below 0.5 µM; in assay [7], above 1 µM. In addition, the MIC in assay [2] is 8 to 32 µg/mL; in assay [3], below 8 µg/mL; in assay [4], below 8 µg/mL; in assay [5] it was below 8 µg/mL; in assay [6], below 8 µg/mL.

The values above are taken from patent US12503452B2 (Curza Global, LLC, priority 2019, dated 2025).
